Assay results: the supplement of paper PMC10307832

Legend:
Pemetrexed = compound: Nc1nc2[nH]cc(CCc3ccc(C(=O)N[C@@H](CCC(=O)O)C(=O)O)cc3)c2c(=O)[nH]1 [Pemetrexed]; assay: relative viability (nuclei count vs DMSO), 5 days (fraction); higher = more cells survive
Summary of the method: (§1)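 In 1536-well plates, lung cancer cell lines rested overnight at 37 °C before five library-drug doses (not always all listed), √10 apart, were pinned onto vehicle-anchored plates. Nuclei were counted with MetaXpress from 4× Hoechst images taken after 5 days without medium change. Viability compares treated-well with vehicle-well nuclei as a median over plates, and plates needed control CV below 25% plus at least one doubling to pass.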

Idelalisib = compound: CC[C@H](Nc1ncnc2[nH]cnc12)c1nc2cccc(F)c2c(=O)n1-c1ccccc1 [Idelalisib]; assay: as above
Summary of the method: as §1

Cell Line | relative viability (Pemetrexed; 0.002 µM) | relative viability (Pemetrexed; 0.006325 µM) | relative viability (Pemetrexed; 0.02 µM) | relative viability (Pemetrexed; 0.06325 µM) | relative viability (Pemetrexed; 0.2 µM) | relative viability (Pemetrexed; 0.2 µM, anchor plate) | relative viability (Idelalisib; 0.04 µM) | relative viability (Idelalisib; 0.1265 µM) | relative viability (Idelalisib; 1.265 µM) | relative viability (Idelalisib; 4 µM) | relative viability (Idelalisib; 0.4 µM)
NCI-H441 | 0.917 | 1.01 | 1.1 | 0.688 | 0.452 | 0.255 | 1.13 | 0.941 | 1.12 | 1.05 | 
NCI-H520 | 0.938 | 0.969 | 0.95 | 0.936 | 0.975 | 0.693 | 0.958 | 0.987 | 0.922 | 0.79 | 0.84
CAL-12T | 0.936 | 0.938 | 1.16 | 0.967 | 0.863 | 1.19 | 1.1 | 1.08 | 1.11 | 1.08 | 1.01
HCC-827 | 0.908 | 1.09 | 1.05 | 1.02 |  |  | 1.08 | 1.05 | 1.08 | 0.952 | 1.01
LC-2-ad | 0.815 | 0.974 | 0.967 | 0.296 | 0.3 | 0.285 | 1.05 | 1 | 1.12 | 0.93 | 0.962
NCI-H2170 | 0.952 | 0.928 | 1.04 | 1.01 |  |  | 1.01 | 1.02 | 0.885 | 0.807 | 0.88
SW 1573 | 1.04 | 0.951 | 1.05 | 0.893 | 0.976 | 0.897 | 1.09 | 0.886 | 0.961 | 0.923 | 0.896
SK-MES-1 | 0.979 | 0.932 | 1.07 | 0.976 | 0.934 | 0.94 | 1.04 | 1.01 | 0.749 | 0.745 | 0.885
NCI-H1648 | 0.992 | 0.924 | 0.888 | 0.783 | 0.931 | 0.77 | 0.963 | 0.918 | 0.849 | 0.661 | 0.697
NCI-H1793 | 0.909 | 0.807 | 0.986 | 0.987 | 0.93 | 0.923 | 1.01 | 1.02 | 0.846 | 0.545 | 0.569
NCI-H1299 | 1.01 | 0.998 | 1.06 | 0.991 | 0.959 |  | 1.02 | 1.07 | 1.04 | 1 | 1.03
LCLC-97TM1 | 0.913 | 0.891 | 0.93 | 1.02 |  |  | 1.17 | 0.92 | 1.09 | 0.911 | 0.777
NCI-H1915 | 0.95 | 0.976 | 1.12 | 0.982 | 0.98 | 0.507 | 1.08 | 0.999 | 1.11 | 0.984 | 0.948
NCI-H661 | 1 | 0.975 | 1.02 | 0.977 | 0.967 | 0.923 | 1.07 | 0.976 | 1.01 | 0.994 | 0.98
NCI-H2405 | 0.97 | 0.985 | 1.09 | 0.98 | 0.961 | 1.08 | 1.06 | 0.985 | 1 | 0.956 | 0.886
NCI-H2347 | 0.931 | 0.965 | 1.14 | 0.9 | 0.655 | 0.42 | 1.1 | 1.03 | 1.14 | 0.866 | 0.904

Cell Line | relative viability (Pemetrexed; 0.002 µM) | relative viability (Pemetrexed; 0.006325 µM) | relative viability (Pemetrexed; 0.02 µM) | relative viability (Pemetrexed; 0.06325 µM) | relative viability (Pemetrexed; 0.2 µM) | relative viability (Pemetrexed; 0.2 µM, anchor plate) | relative viability (Idelalisib; 0.04 µM) | relative viability (Idelalisib; 0.1265 µM) | relative viability (Idelalisib; 1.265 µM) | relative viability (Idelalisib; 4 µM) | relative viability (Idelalisib; 0.4 µM)
NCI-H1651 | 0.951 | 0.91 | 1.04 | 0.95 | 0.945 | 0.616 | 1.01 | 1.01 | 0.965 | 0.938 | 0.885
H3255 | 0.819 | 1.03 | 0.986 | 1.07 | 0.827 | 0.587 | 1.06 | 0.946 | 0.959 | 0.879 | 0.925
Calu-6 | 0.92 | 0.96 | 1.1 | 1 | 0.886 |  | 1.04 | 1.04 | 0.998 | 0.947 | 0.977
SW 900 | 0.809 | 0.907 | 0.948 | 0.814 | 0.487 | 0.496 | 0.855 | 0.851 | 0.853 | 0.696 | 0.701
NCI-H650 | 0.851 | 0.905 | 0.987 | 0.857 | 1.02 | 0.925 | 0.938 | 1.01 | 1.05 | 0.889 | 0.885
NCI-H460 | 0.878 | 0.969 | 1.03 | 0.745 | 0.116 | 0.065 | 0.996 | 1.01 | 1.02 | 1 | 1.01
NCI-H2228 | 0.799 | 0.878 | 1.2 | 0.838 | 0.333 | 0.339 | 1.22 | 0.84 | 1.12 | 0.972 | 0.788
NCI-H2085 | 0.947 | 0.979 | 1.08 | 1.03 | 0.98 | 0.921 | 1.05 | 0.995 | 0.955 | 0.729 | 0.91
HCC-366 | 0.964 | 0.985 | 1.07 | 0.991 |  |  | 1.06 | 0.993 | 0.987 | 0.966 | 0.986
EPLC-272H | 0.888 | 0.892 | 1.1 | 0.935 | 0.798 | 0.313 | 1.07 | 0.9 | 0.902 | 0.873 | 0.815
201T | 1.01 | 0.998 | 1.04 | 0.996 | 0.91 | 0.323 | 0.985 | 1.01 | 1.06 | 0.867 | 0.885
NCI-H3122 | 1.01 | 0.953 | 1.02 | 0.951 | 0.576 | 0.201 | 1.03 | 0.989 | 0.977 | 1.03 | 1
NCI-H838 | 0.99 | 0.917 | 1.08 | 0.869 | 0.359 | 0.257 | 0.958 | 0.993 | 0.921 | 0.753 | 0.851
NCI-H1755 | 0.872 | 0.983 | 1.01 | 0.995 | 0.879 | 0.47 | 1.01 | 1.01 | 0.926 | 0.949 | 0.955
HCC-15 | 0.823 | 0.948 | 1.09 | 0.978 | 0.402 | 0.227 | 1.12 | 1.04 | 1.13 | 1.02 | 0.914
NCI-H2087 | 0.926 | 0.875 | 1.15 | 1.05 | 0.639 | 0.684 | 1.09 | 1.13 | 1.12 | 0.749 | 0.868
